Experimental data reported in US20260216229A1, “PROGRAMMABLE DNA PROTEOLYSIS TARGET CHIMERAS AND METHODS OF THEIR USE” (ARIZONA BOARD OF REGENTS ON BEHALF OF ARIZONA STATE …, priority 2023, published 2026).

Legend:
Format in all cases: cell-based
CDK6 [1] = target: T1, CDK6 (Homo sapiens, UniProt Q00534); assay: Western blot of CDK6 degradation in U251 cells transfected with DNA-PROTACs
T1 construct: Western blot analysis of CDK6 degradation in U251 cells treated with distance-based DNA-PROTACs; endogenous in cells; host or cells: U-251 MG (U251) glioblastoma cells
Method: U-251 MG Glioblastoma Cell Line was grown in Dulbecco's Modified Eagles Medium (DMEM) containing 10% heat inactivated fetal bovine serum (FBS), streptomycin (5 μg/mL) and 5 U/mL penicillin 95 U/mL). All cell lines were maintained, and cell culture experiments were carried out in humidified incubators at 37° C. and 5% CO2 supplementation.
One day prior to DNA-PROTACs transfection, cells were propagated into 6 cm cell culture dishes containing appropriate complete growth medium. Prior to transfection, complete medium was replaced with transfection medium (5% FBS, no Penstrep). DNA-PROTACs transfection was performed using lipofectamine 3000 reagent according to the protocols provided by the manufacture. All transfections were carried out in 6-cm dishes with 3 mL of media and concentrations of DNA-PROTACs were calculated according to this volume (3 mL). Briefly, for 50 nM concentration, 5 μL from a 30 µM DNA-PROTACs stock and 12 μL p3000 reagent was added to a tube containing 125 μL of OPTIM-MEM and 8 μL of Lipofectamine 3000 reagent was added to a separate tube containing 125 μL of OPTIM-MEM. Two tubes were incubated for 5 minutes at room temperature and DNA-PROTACs containing OPTI-MEM was then slowly added to the second tube with lipo3000. The solution in the tube was mixed well by pipetting up and down several times. After incubating for 15-20 minutes at room temperature, 250 μL of DNA-PROTACs-lipofectamine complex was added drop wise onto cells containing the transfection medium. Transfection medium was mixed well before transferring the plate into the incubator. After appropriate time, cells were either harvested or replaced with fresh medium and incubated for desired time point prior to harvesting. For proteasome inhibition assay, 5 μM of MG-132 was incubated with cells for 2 h prior to transfection of DNA-PROTACs. Then, cells were incubated for another 12 h before lysing cells. Cell lysates were prepared by incubating cells in RIPA lysis buffer (25 mM Tris pH 7.6, 150 mM NaCl, 1% NP40, 1% deoxycholate, 0.1% SDS, 1× protease inhibitor cocktail from Roche and 1 mM of PMSF) on ice for 30 minutes and cell lysate was clarified by centrifugation at high speed (15 000 rpm) for 15 minutes. Clear supernatant was collected for further experiments.
Protein concentration in all the cell lysates were measured by BCA protein assay kit and equal amounts from each lysate were mixed with 4×loading dye and boiled for 5 minutes followed by 2 minutes centrifugation prior to loading into SDS-PAGE gel. Next proteins on the SDS-PAGE gel were transferred to a Nitrocellulose membrane by western blotting and the membrane was blocked with 5% milk in TBST (0.05% Tween 20) for 1 h. Primary antibodies (all Abcam antibodies were diluted 1:5000) were prepared in TBST with 2.5% milk and membranes were incubated overnight at 4° C. On the following day, membrane was washes for 15 minutes (Incubate for three times, 5 minutes each) and appropriate secondary antibodies (1:5000) were prepared in TBST and incubated with the membrane for 1 h at room temperature (RT). Membrane was washed for 15 minutes with TBST (incubate for three times, […]) prior to imaging.
The degradation efficiency of various DNA-PROTACs was evaluated through their transfection into U251 cells, conducted simultaneously to ensure uniform experimental conditions. A double-stranded DNA sequence without any ligand was utilized as a negative control, providing a baseline for comparison. Following a 14-hour treatment period, a duration selected based on preliminary time-course studies, the cells were harvested using trypsin digestion. The lysates obtained were then subjected to SDS-PAGE, followed by Western blot analysis to assess protein degradation. […] This finding highlights the efficacy of DNA-PROTAC V02 in targeting and reducing CDK6 protein levels. In comparison, DNA-PROTAC Versions 03 and 04 also facilitated protein degradation, albeit with varying degrees of efficiency. […]

CDK4 = target: T2, CDK4 (Homo sapiens, UniProt P11802); assay: Western blot of CDK4 degradation in U251 cells transfected with DNA-PROTACs
T2 construct: Dose- and Time-dependent Degradation of CDK6 and CDK4 in U251 Cells; endogenous in cells; host or cells: U-251 MG (U251) glioblastoma cells
Method: One day prior to DNA-PROTACs transfection, cells were propagated into 6 cm cell culture dishes containing appropriate complete growth medium. Prior to transfection, complete medium was replaced with transfection medium (5% FBS, no Penstrep). DNA-PROTACs transfection was performed using lipofectamine 3000 reagent according to the protocols provided by the manufacture. All transfections were carried out in 6-cm dishes with 3 mL of media and concentrations of DNA-PROTACs were calculated according to this volume (3 mL). Briefly, for 50 nM concentration, 5 μL from a 30 µM DNA-PROTACs stock and 12 μL p3000 reagent was added to a tube containing 125 μL of OPTIM-MEM and 8 μL of Lipofectamine 3000 reagent was added to a separate tube containing 125 μL of OPTIM-MEM. […]

CDK6 [2] = target: T1, CDK6; assay: Proteasome inhibition (MG132) assay of CDK6 degradation in U251 cells; settings: 8-hour treatment
Method: One day prior to DNA-PROTACs transfection, cells were propagated into 6 cm cell culture dishes containing appropriate complete growth medium. Prior to transfection, complete medium was replaced with transfection medium (5% FBS, no Penstrep). DNA-PROTACs transfection was performed using lipofectamine 3000 reagent according to the protocols provided by the manufacture. All transfections were carried out in 6-cm dishes with 3 mL of media and concentrations of DNA-PROTACs were calculated according to this volume (3 mL). Briefly, for 50 nM concentration, 5 μL from a 30 µM DNA-PROTACs stock and 12 μL p3000 reagent was added to a tube containing 125 μL of OPTIM-MEM and 8 μL of Lipofectamine 3000 reagent was added to a separate tube containing 125 μL of OPTIM-MEM. Two tubes were incubated for 5 minutes at room temperature and DNA-PROTACs containing OPTI-MEM was then slowly added to the second tube with lipo3000. The solution in the tube was mixed well by pipetting up and down several times. […]
Protein concentration in all the cell lysates were measured by BCA protein assay kit and equal amounts from each lysate were mixed with 4×loading dye and boiled for 5 minutes followed by 2 minutes centrifugation prior to loading into SDS-PAGE gel. […]
Subsequent RNA isolation and RT-PCR detection enabled a quantitative assessment of CDK6 and CDK4 mRNA expression levels. […]

CDK6 mRNA = assay: RT-PCR of CDK6 mRNA expression in U251 cells; settings: 100 nM, 6 hours
Method: (§1) Subsequent RNA isolation and RT-PCR detection enabled a quantitative assessment of CDK6 and CDK4 mRNA expression levels. […] To further corroborate the mechanistic intricacies of DNA-PROTAC-V02, we probed its interaction with the proteasome pathway. […] Following an 8-hour treatment period, cells were collected, and Western blot analysis was conducted.

CDK4 mRNA = assay: RT-PCR of CDK4 mRNA expression in U251 cells; settings: 100 nM, 6 hours
Method: as §1

CDK6 [3] = target: T1, CDK6; assay: Immunofluorescence staining / confocal analysis of CDK6 in U251 cells; settings: 20 nM and 100 nM, compared to controls dsDNA, dsDNA-CDK6-i, dsDNA-E3-i
Method: U-251 MG cells were seeded into 10 mm confocal dishes (Ibidi) and incubated overnight. Subsequently, cells were quickly washed thrice with ice-cold PBS and then fixed with 4% paraformaldehyde for 20 min. After fixation, cells were washed with PBS and permeabilized with 0.1% Triton X-100 at room temperature for 10 min. The samples were then incubated in a blocking solution for 1 h at room temperature, followed by incubation with primary antibody overnight at 4° C. The primary antibody used was mouse CDK6 antibody (Abacm, 1:100). After washing thrice with PBST (PBS with 0.1% Tween 20), the samples were incubated with the secondary antibody in the dark for 1.5 h at room temperature. Cells were washed 3 times in PBST for 5 minutes each then incubated in the appropriate secondary antibodies supplemented CoraLite488-conjugated Goat Anti-Rabbit IgG(H+L) (Proteintech, 1:100) for 3 hrs. The nucleus was counterstained with DAPI (Hoechst 3342, 1 ug/mL) for 20 mins followed by 3 times wash in PBST. Finally, the slides were Imaging by Nikon X confocal.

T1 sequence (Q00534 whole entry): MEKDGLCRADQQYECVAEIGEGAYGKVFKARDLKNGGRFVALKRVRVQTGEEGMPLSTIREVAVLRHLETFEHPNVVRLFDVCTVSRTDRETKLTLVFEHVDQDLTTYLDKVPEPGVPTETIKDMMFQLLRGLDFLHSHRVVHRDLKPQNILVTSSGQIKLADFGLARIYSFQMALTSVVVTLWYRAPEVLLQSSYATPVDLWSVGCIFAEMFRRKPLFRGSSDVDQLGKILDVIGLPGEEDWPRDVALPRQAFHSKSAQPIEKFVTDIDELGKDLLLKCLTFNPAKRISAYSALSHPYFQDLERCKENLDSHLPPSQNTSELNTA
T2 sequence (P11802 whole entry): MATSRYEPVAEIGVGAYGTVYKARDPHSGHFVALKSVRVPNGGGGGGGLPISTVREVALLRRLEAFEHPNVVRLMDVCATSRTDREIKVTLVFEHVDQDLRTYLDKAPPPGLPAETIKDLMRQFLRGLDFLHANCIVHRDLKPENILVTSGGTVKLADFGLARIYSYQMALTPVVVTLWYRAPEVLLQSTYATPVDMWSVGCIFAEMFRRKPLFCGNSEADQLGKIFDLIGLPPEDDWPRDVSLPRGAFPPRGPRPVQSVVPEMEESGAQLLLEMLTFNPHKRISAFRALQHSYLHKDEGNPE

Substance	CDK6 protein degradation (target selectivity, controls) (CDK6 [1])	CDK4 protein degradation (target selectivity, controls) (CDK4)	CDK6 degradation (CDK6 [1]; 50 nM)	time for which CDK6 degradation was sustained (CDK6 [1]; 50 nM, time course)	CDK6 protein degradation (Western blot) (CDK6 [1]; 14-hour treatment, 50 nM and 100 nM, vs ligand-free dsDNA control)	concentration at which significant CDK6 degradation begins (CDK6 [1]; 14 hours, angular series)	concentration at which dose-dependent degradation of CDK6 commences (CDK6 [1]; dose series)	CDK6 protein (Western blot) without MG132 treatment (CDK6 [2]; 50 nM, no MG132)	CDK6 protein (Western blot) with MG132 pre-treatment (CDK6 [2]; MG132 pre-treatment 1 hour, then 50 nM)	CDK6 mRNA levels (RT-PCR) (CDK6 mRNA)	CDK4 mRNA levels (RT-PCR) (CDK4 mRNA)	intracellular green fluorescence (CDK6 immunofluorescence) (CDK6 [3])
DNA-E3 ligand: control: dsDNA with E3 ligand only (chain 1 CTCCATCTATTCTACGCCA; chain 2 TTCTACGCCA; chain 1: DNA, linkages s2 o13 s3 (s phosphorothioate, o phosphodiester), methylation of C not given here; chain 2: DNA, linkages o6 s3 (s phosphorothioate, o phosphodiester), methylation of C not given here; further chemistry not fully specified) [reference compound]	did not induce notable protein degradation	did not induce notable protein degradation	–	–	–	–	–	–	–	–	–	–
DNA-PROTAC-V02: DNA duplex of E3-i (pomalidomide) strand SEQ ID NO 3 and POI-i (palbociclib) strand SEQ ID NO 4 (chain 1 ACTCCATCTANTTCTACGCCA; chain 2 TGGCGTAGAANTAGATGGAGT; pomalidomide and palbociclib conjugated; modified_base 1 OTHER; Nucleotide with phosphorothioate linkage; modified_base 2 OTHER; modified_base 3 OTHER; misc_difference 11 E3 ligase attached to 3-Dimethoxytrityloxy-2-(3-(fluorenylmethoxycarbonylamino)propanamido)propyl-1-O-(2-cyanoethyl)-(N,N-diisopropyl)-phosphoramidite modified adenosine, cytidine, thymi; m)	–	–	over 80%	up to 48 hours	most pronounced degradation of CDK6	20 nM	10 nM	reduction in CDK6 protein	rescue of CDK6 proteins	does not elicit a decrease in mRNA levels	does not elicit a decrease in mRNA levels	weakened intracellular green fluorescence
